According to ChEMBL document CHEMBL5532661, “Discovery of a Novel Glucagon-like Peptide-1 (GLP-1) Analogue from Bullfrog and Investigation of Its Potential for Designing GLP-1-Based Multiagonists” (J Med Chem, 2024):
Calls of active or inactive are those of the source. No cut-off for these calls is given here. Numbered stars: 1 amine (or outer) side, 2 acyl side, 3 side chain; on linkers, the order of the positions; unused ones are H or OH. Square brackets hold non-standard residues; d marks the D form. Side chains are listed from the residue outwards. Peptide text beside a SMILES is read from it. * marks the point of attachment. C18 diacid = O=C(O)CCCCCCCCCCCCCCCCC(=O)*; γGlu = O=C(O)[C@H](CCC(=O)[*:2])N[*:1]; AEEA = NCCOCCOCC(=O)O; Aib = CC(C)(N)C(=O)O

Tests used:
Mus musculus [1] = test: Anorexigenic effect in sc dosed ICR mouse assessed as decrease in food intake measured upto 72 hrs by acute food intake study; type: functional, organism-based; conditions: dose 10-100 nmol/kg
Mus musculus [2] = test: Reduction in hepatic lipid content in DIO mouse at 30 nmol/kg, sc treated every 2 and half day once measured after 21 days by H and E staining based assay; type: functional, organism-based; conditions: time 21.0 day
Mus musculus [3] = test: Reduction in serum AST in DIO mouse at 30 nmol/kg, sc treated every 2 and half day once measured after 21 days; type: functional, organism-based; conditions: time 21.0 day
Mus musculus [4] = test: Reduction in serum triglyceride in DIO mouse at 30 nmol/kg, sc treated every 2 and half day once measured after 21 days; type: functional, organism-based; conditions: time 21.0 day
[5] = biological target: T1, Glucagon-like peptide 1 receptor (Homo sapiens, UniProt P43220); test: Agonist activity at human GLP-1 receptor expressed in HEK293 cells assessed as cAMP level measured after 60 mins by HTRF based assay; type: functional, cell-based
T1 sequence (P43220 whole entry): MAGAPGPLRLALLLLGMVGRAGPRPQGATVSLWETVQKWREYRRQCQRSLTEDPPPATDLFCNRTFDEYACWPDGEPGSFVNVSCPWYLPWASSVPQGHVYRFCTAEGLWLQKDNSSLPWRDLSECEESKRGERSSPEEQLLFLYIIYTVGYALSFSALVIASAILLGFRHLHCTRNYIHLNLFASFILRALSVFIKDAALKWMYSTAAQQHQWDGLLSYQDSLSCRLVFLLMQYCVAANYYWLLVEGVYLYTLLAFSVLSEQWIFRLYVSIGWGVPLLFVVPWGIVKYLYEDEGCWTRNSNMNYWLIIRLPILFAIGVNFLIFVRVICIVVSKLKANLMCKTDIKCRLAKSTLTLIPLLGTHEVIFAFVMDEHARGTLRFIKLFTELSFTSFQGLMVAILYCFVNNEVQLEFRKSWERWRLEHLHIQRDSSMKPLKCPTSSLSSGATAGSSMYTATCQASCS

Mus musculus [6] = test: Reduction in body weight in DIO mouse at 30 nmol/kg, sc treated every 2 and half day once measured after 21 days; type: functional; set-up: scale not given: the % may be the effect or the level left; conditions: time 21 day
Mus musculus [7] = test: Anorexigenic effect in ICR mouse assessed as decrease in food intake at 10 nmol/kg, sc measured upto 72 hrs by acute food intake study; type: functional, organism-based
Mus musculus [8] = test: Hypoglycemic effect in ICR mouse treated with 3 g/kg glucose assessed as reduction in blood glucose level at 30 nmol/kg, sc measured upto 120 mins pretreated with GLP-1R antagonist by OGTT; type: functional, organism-based
Mus musculus [9] = test: Reduction in total cholesterol in DIO mouse at 30 nmol/kg, sc treated every 2 and half day once measured after 21 days; type: functional, organism-based; conditions: time 21.0 day
Mus musculus [10] = test: Antihyperglycemic effect in DIO mouse assessed as prolonged antihyperglycemic duration by measuring blood glucose at 100 nmol/kg, sc; type: functional, organism-based
Mus musculus [11] = test: Reduction in total fat mass in DIO mouse at 30 nmol/kg, sc treated every 2 and half day once measured after 21 days; type: functional, organism-based; conditions: time 21.0 day
Mus musculus [12] = test: Anorexigenic effect in ICR mouse assessed as decrease in food intake at 30 nmol/kg, sc measured upto 72 hrs by acute food intake study; type: functional, organism-based
[13] = biological target: T1, Glucagon-like peptide 1 receptor; test: Potency index, ratio of Semaglutide EC50 to test compound EC50 for agonist activity at human GLP-1 receptor expressed in HEK293 cells assessed as cAMP level measured after 60 mins by HTRF based assay; type: functional, cell-based; conditions: filed as agonist
Mus musculus [14] = test: Antihyperglycemic effect in non-fasted DIO mouse assessed as decrease in blood glucose at 30 nmol/kg, sc measured upto 48 hrs; type: functional, organism-based
Mus musculus [15] = test: Reduction in serum ALT in DIO mouse at 30 nmol/kg, sc treated every 2 and half day once measured after 21 days; type: functional, organism-based; conditions: time 21.0 day
Mus musculus [16] = test: Anorexigenic effect in ICR mouse assessed as decrease in food intake at 30 nmol/kg, sc measured at 48 hrs by acute food intake study; type: functional, organism-based
Mus musculus [17] = test: Antihyperglycemic effect in DIO mouse assessed as antihyperglycemic duration by measuring blood glucose at 30 nmol/kg, sc administered twice daily measured by hypoglycemic duration assay; type: functional, organism-based
Mus musculus [18] = test: Hypoglycemic effect in ICR mouse treated with 3 g/kg glucose assessed as reduction in blood glucose level at 100 nmol/kg, sc measured upto 120 mins by acute glucose lowering test; type: functional, organism-based
Mus musculus [19] = test: Reduction in blood glucose level in non-fasting DIO mouse at 30 nmol/kg, sc treated every 2 and half day once measured after 21 days by glucose tolerance test; type: functional, organism-based; conditions: time 21.0 day
Mus musculus [20] = test: Antihyperglycemic effect in DIO mouse assessed as antihyperglycemic duration by measuring blood glucose at 30 nmol/kg, sc measured after 48 hrs by hypoglycemic duration assay; type: functional, organism-based
Glucagon receptor = Glucagon receptor (Homo sapiens, UniProt P47871); test: Agonist activity at human GCGR expressed in HEK293 cells assessed as cAMP level measured after 60 mins by HTRF based assay; type: functional, cell-based
Sequence of Glucagon receptor (P47871 whole entry): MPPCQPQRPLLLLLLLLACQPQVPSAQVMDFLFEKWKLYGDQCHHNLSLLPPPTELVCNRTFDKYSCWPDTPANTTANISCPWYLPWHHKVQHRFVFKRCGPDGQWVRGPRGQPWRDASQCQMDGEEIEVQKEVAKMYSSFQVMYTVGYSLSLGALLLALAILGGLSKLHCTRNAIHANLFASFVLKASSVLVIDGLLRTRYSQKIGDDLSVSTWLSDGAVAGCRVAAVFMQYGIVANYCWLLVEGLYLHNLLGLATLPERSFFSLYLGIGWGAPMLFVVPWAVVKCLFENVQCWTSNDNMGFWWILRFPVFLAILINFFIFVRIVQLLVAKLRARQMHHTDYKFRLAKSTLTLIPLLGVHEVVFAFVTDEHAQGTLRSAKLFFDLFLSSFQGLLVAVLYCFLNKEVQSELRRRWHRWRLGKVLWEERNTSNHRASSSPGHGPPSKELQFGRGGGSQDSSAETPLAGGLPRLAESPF

Mus musculus [21] = test: Reduction in serum AST level in DIO mouse at 30 nmol/kg, sc treated twice a day measured after 21 days; type: functional, organism-based; conditions: time 21.0 day
Mus musculus [22] = test: Reduction in body weight in DIO mouse at 30 nmol/kg, sc treated twice a day measured after 21 days; type: functional; set-up: scale not given: the % may be the effect or the level left; conditions: time 21 day
Mus musculus [23] = test: Reduction in serum ALT level in DIO mouse at 30 nmol/kg, sc treated twice a day measured after 21 days; type: functional, organism-based; conditions: time 21.0 day
Mus musculus [24] = test: Reduction in feed intake in DIO mouse at 30 nmol/kg, sc treated twice a day measured after 21 days; type: functional, organism-based; conditions: time 21.0 day
[25] = biological target: T2, Gastric inhibitory polypeptide receptor (Homo sapiens, UniProt P48546); test: Agonist activity at human GIPR receptor expressed in HEK293 cells assessed as cAMP level measured after 60 mins by HTRF based assay; type: functional, cell-based
T2 sequence (P48546 whole entry): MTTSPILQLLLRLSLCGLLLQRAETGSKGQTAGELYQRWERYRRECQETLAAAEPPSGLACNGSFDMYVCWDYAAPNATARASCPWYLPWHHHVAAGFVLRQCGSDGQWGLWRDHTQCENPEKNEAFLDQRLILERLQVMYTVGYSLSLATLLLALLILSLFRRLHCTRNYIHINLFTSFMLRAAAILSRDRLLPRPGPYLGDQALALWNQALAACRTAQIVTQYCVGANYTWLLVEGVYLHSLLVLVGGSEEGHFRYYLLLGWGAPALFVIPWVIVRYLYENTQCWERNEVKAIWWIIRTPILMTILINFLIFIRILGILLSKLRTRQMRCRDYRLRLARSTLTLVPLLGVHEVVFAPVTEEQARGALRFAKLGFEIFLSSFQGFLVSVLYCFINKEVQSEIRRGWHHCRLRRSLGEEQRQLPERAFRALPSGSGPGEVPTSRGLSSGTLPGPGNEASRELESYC

Mus musculus [26] = test: Hypoglycemic effect in ICR mouse treated with 3 g/kg glucose assessed as reduction in blood glucose level at 30 nmol/kg, sc measured upto 120 mins pretreated with GLP-1R and GIPR antagonist by OGTT; type: functional, organism-based

Row | EC50 [5] [nM] | Compound | Activity (Mus musculus [3]) | Activity (Mus musculus [6]) [%] | Activity (Mus musculus [12]) | Activity (Mus musculus [15]) | Activity (Mus musculus [16]) | Activity (Mus musculus [17]) | Activity (Mus musculus [18]) | EC50 (Glucagon receptor) [nM] | Activity (Mus musculus [24]) | also measured
1 | 0.019 | CC[C@H](C)[C@H](NC(=O)[C@H](CC(C)C)NC(=O)[C@H](Cc1c[nH]c2ccccc12)NC(=O)[C@H](CC(=O)O)NC(=O)[C@@H](NC(=O)[C@H](Cc1ccccc1)NC(=O)[C@H](CCC(=O)O)NC(=O)[C@H](CCCCNC(=O)COCCOCCNC(=O)COCCOCCNC(=O)CC[C@H](NC(=O)CCCCCCCCCCCCCCCCC(=O)O)C(=O)O)NC(=O)[C@H](C)NC(=O)[C@H](C)NC(=O)[C@H](CCC(=O)O)NC(=O)[C@H](CCC(=O)O)NC(=O)[C@H](CCC(=O)O)NC(=O)[C@H](CC(C)C)NC(=O)[C@H](Cc1ccc(O)cc1)NC(=O)[C@H](CO)NC(=O)[C@H](CO)NC(=O)[C@H](CCSC)NC(=O)[C@H](CC(=O)O)NC(=O)[C@H](CO)NC(=O)[C@@H](NC(=O)[C@H](Cc1ccccc1)NC(=O)[C@@H](NC(=O)CNC(=O)[C@H](CC(=O)O)NC(=O)C(C)(C)NC(=O)[C@@H](N)Cc1c[nH]cn1)[C@@H](C)O)[C@@H](C)O)C(C)C)C(=O)N[C@@H](CCCCN)C(=O)NCC(=O)N[C@@H](CCCNC(=N)N)C(=O)N1CCC[C@H]1C(=O)N[C@@H](C)C(N)=O (H-H[Aib]DGTFTSDMSSYLEEEAAK([AEEA-AEEA-γGlu-C18 diacid])EFVDWLIKGRPA-NH2) | Active | 24.9 | Active | Active | Active | Active | Active |  |  | Activity (Mus musculus [1]): Dose-Dependent Effect; Activity (Mus musculus [2]): Active; Activity (Mus musculus [4]): Active; Activity (Mus musculus [7]): Active; Activity (Mus musculus [8]): inactive; Activity (Mus musculus [9]): Active; Activity (Mus musculus [10]): Active; Activity (Mus musculus [11]): Active; Ratio EC50 [13]: 2.8; Activity (Mus musculus [14]): Active; Activity (Mus musculus [19]): Active; Activity (Mus musculus [20]): Active
2 | 0.075 | CCCCCCCCCCCCCCCC(=O)N[C@@H](CCC(=O)NCCCC[C@H](NC(=O)[C@H](CC(=O)O)NC(=O)[C@H](CO)NC(=O)[C@@H](NC(=O)[C@H](Cc1ccccc1)NC(=O)[C@@H](NC(=O)CNC(=O)[C@H](CCC(N)=O)NC(=O)[C@H](CO)NC(=O)[C@@H](N)Cc1c[nH]cn1)[C@@H](C)O)[C@@H](C)O)C(=O)N[C@@H](CO)C(=O)N[C@@H](CCC(=O)O)C(=O)N[C@@H](Cc1ccc(O)cc1)C(=O)N[C@@H](CC(C)C)C(=O)N[C@@H](CC(=O)O)C(=O)N[C@@H](CO)C(=O)N[C@@H](CCC(=O)O)C(=O)N[C@@H](CCCNC(=N)N)C(=O)N[C@@H](C)C(=O)N[C@@H](CCCNC(=N)N)C(=O)N[C@@H](CC(=O)O)C(=O)N[C@@H](Cc1ccccc1)C(=O)N[C@H](C(=O)N[C@@H](C)C(=O)N[C@@H](Cc1c[nH]c2ccccc12)C(=O)N[C@@H](CC(C)C)C(=O)N[C@@H](CCC(=O)O)C(=O)N[C@@H](C)C(=O)NCC(=O)NCC(=O)O)C(C)C)C(=O)O [COTADUTIDE] |  |  | Active |  |  |  | Active | 0.17 | Active | Activity (Mus musculus [21]): Active; Activity (Mus musculus [22]): ~24.6%; Activity (Mus musculus [23]): Active

Row | Compound | EC50 [5] [nM] | Activity (Mus musculus [3]) | Activity (Mus musculus [6]) [%] | Activity (Mus musculus [12]) | Activity (Mus musculus [15]) | Activity (Mus musculus [16]) | Activity (Mus musculus [17]) | Activity (Mus musculus [18]) | EC50 (Glucagon receptor) [nM] | Activity (Mus musculus [24]) | also measured
3 | CC[C@H](C)[C@H](NC(=O)[C@H](Cc1ccccc1)NC(=O)[C@H](C)NC(=O)C(C)(C)NC(=O)[C@H](CCC(N)=O)NC(=O)[C@H](C)NC(=O)[C@H](CCCCNC(=O)COCCOCCNC(=O)CC[C@H](NC(=O)CCCCCCCCCCCCCCCCCCC(=O)O)C(=O)O)NC(=O)[C@H](CCCCN)NC(=O)[C@H](CC(=O)O)NC(=O)[C@H](CC(C)C)NC(=O)[C@](C)(CC(C)C)NC(=O)[C@@H](NC(=O)[C@H](CO)NC(=O)[C@H](Cc1ccc(O)cc1)NC(=O)[C@H](CC(=O)O)NC(=O)[C@H](CO)NC(=O)[C@@H](NC(=O)[C@H](Cc1ccccc1)NC(=O)[C@@H](NC(=O)CNC(=O)[C@H](CCC(N)=O)NC(=O)C(C)(C)NC(=O)[C@@H](N)Cc1ccc(O)cc1)[C@@H](C)O)[C@@H](C)O)[C@@H](C)CC)C(=O)N[C@@H](CCC(=O)O)C(=O)N[C@@H](Cc1ccc(O)cc1)C(=O)N[C@@H](CC(C)C)C(=O)N[C@@H](CC(C)C)C(=O)N[C@@H](CCC(=O)O)C(=O)NCC(=O)NCC(=O)N1CCC[C@H]1C(=O)N[C@@H](CO)C(=O)N[C@@H](CO)C(=O)NCC(=O)N[C@@H](C)C(=O)N1CCC[C@H]1C(=O)N1CCC[C@H]1C(=O)N1CCC[C@H]1C(=O)N[C@@H](CO)C(N)=O | 0.041 | Active | 38.5 | Active | Active | Active | Active | Active | 0.23 | Active | EC50 [25]: 0.022 nM; Activity (Mus musculus [26]): inactive
